Here are results for 44 compounds from patent US6294555A, “1-[(1-Substituted-4-piperidinyl)methyl]-4-piperidine derivative, process for producing the same, medicinal compositions containing the same and intermediates of these compounds” (Dainippon Pharmaceutical Co., Ltd., priority 1998, dated 2001).

In general, IC50 refers to the midpoint of a concentration-inhibition curve.

The target of one test is T1, Serotonin 4 (5-HT4) Receptors (Cavia porcellus, UniProt O70528).
T1 construct: the striatum was dissected; from tissue; host or cells: guinea pig (Std-Hartley) brain striatum, membrane fractions
T1 sequence (O70528 whole entry): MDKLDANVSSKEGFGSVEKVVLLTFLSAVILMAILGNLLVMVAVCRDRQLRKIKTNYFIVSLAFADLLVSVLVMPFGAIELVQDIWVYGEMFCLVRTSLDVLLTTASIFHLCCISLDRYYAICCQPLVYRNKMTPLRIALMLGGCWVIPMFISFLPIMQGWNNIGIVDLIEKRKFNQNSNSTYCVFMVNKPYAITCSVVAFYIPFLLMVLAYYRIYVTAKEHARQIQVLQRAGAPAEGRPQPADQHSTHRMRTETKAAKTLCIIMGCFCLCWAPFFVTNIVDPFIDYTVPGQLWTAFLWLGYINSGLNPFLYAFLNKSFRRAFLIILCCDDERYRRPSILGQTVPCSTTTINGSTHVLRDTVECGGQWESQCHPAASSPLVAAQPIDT
Description: Binding Assay on Serotonin 4 (5-HT4) Receptors ([3H]-GR113808, striatum membrane fractions). Also noted: species or system guinea pig (Std-Hartley). To be noted: 50% inhibition of specific binding of 0.1 nM [3H]-GR113808; 37° C., 30 min; test compounds are fumarates except numbers marked ** (62, 72, 74: free bases). How it is done:
Std-Hartley guinea pigs weighing 300-400 g were decapitated, and the brain thereof was immediately taken out, and the striatum was dissected. To the tissue thus obtained was added 15-times volume of Hepes buffer (50 mM, pH7.4, 4° C.), homogenized in a Teflon homogenizer, and centrifuged at 48,000×g at 4° C. for 15 minutes. The pellet was suspended in the same Hepes buffer in a volume of 1 ml per 30 mg of the wet tissues to give receptor membrane fractions.
The reaction was terminated by rapid vacuum filtration and washing (3×4 ml) with ice-cold 50 mM Tris-HCl buffer (pH 7.7) through Whatman GF/B filter paper using a Brandel cell harvester. Prior to the filtration, the filter to be used was presoaked in a 0.1% solution of polyethylenimine for one hour. The radioactivity on the filter was determined with by ACS-II scintillation cocktail by a liquid scintillation counter.
In turn, `COc1cc(N)c(Br)cc1C(=O)NC1CCN(CC2CCN(C(=O)N3CCCC3)CC2)CC1` [Example 34, 4-amino-5-bromo-2-methoxy-N-[1-[1-(1-pyrrolidinecarbonyl)-4-piperidinylmethyl]-4-piperidinyl]benzamide] returned an IC50 of 8.9 nM.
The same measure, in the same setting: with `CCOc1cc(N)c(Cl)cc1C(=O)NC1CCN(CC2CCN(C(=O)N3CCCC3)CC2)CC1` [Example 32] the figure was 3.2 nM; with `COc1cc(N)c(Cl)cc1C(=O)NC1CCN(CC2CCN(C(=O)NC3CCCC3)CC2)CC1` [Example 49], 4.4 nM.
`CCN(C)C(=O)N1CCC(CN2CCC(NC(=O)c3cc(Cl)c(N)cc3OC)CC2)CC1` [Example 4, 4-amino-5-chloro-N-[1-[1-(N-ethyl-N-methylcarbamoyl)-4-piperidinylmethyl]-4-piperidinyl]-2-methoxybenzamide]: the IC50 came out at 11.9 nM.
Still for that read-out and setting: the figure for `COc1cc(N)c(Cl)cc1C(=O)NC1CCN(CC2CCN(C(=O)Nc3ccccc3)CC2)CC1` [Example 37, 4-amino-5-chloro-2-methoxy-N-[1-(1-phenylcarbamoyl-4-piperidinylmethyl)-4-piperidinyl]benzamide] is 1.1 nM; for `COc1cc(N)c(Cl)cc1C(=O)NC1CCN(CC2CCN(C(=O)Nc3ccc(Cl)cc3)CC2)CC1` [Example 38] it is 1.6 nM; for `CCN(CC)C(=O)N1CCC(CN2CCC(NC(=O)c3cc(Cl)c(N)cc3OC)CC2)CC1` [Example 2] it is 11.9 nM.
Same read-out and setting: the figure for `COc1cc(N)c(Cl)cc1C(=O)NC1CCN(CC2CCN(C(=O)c3cc(OC)c(OC)c(OC)c3)CC2)CC1` [Example 74] is 9 nM; for `CCOC(=O)CCCN1CCC(CN2CCC(NC(=O)c3cc(Cl)c(N)cc3OC)CC2)CC1` [Example 92] it is 4.1 nM; for `Nc1c(Cl)cc(C(=O)NC2CCN(CC3CCN(C(=O)Nc4ccccc4)CC3)CC2)c2c1CCO2` [Example 52, 4-amino-5-chloro-N-[1-(1-phenylcarbamoyl-4-piperidinylmethyl)-4-piperidinyl]-2,3-dihydrobenzo[b]furan-7-carboxamide] it is 0.36 nM.
Same read-out and setting: the figure for `COc1cc(N)c(Cl)cc1C(=O)NC1CCN(CC2CCN(C(=O)c3ccc(C)cc3)CC2)CC1` [Example 61] is 4.6 nM; for `COC(=O)CCCC(=O)N1CCC(CN2CCC(NC(=O)c3cc(Cl)c(N)cc3OC)CC2)CC1` [Example 69] it is 18 nM.
For `CCCN(C)C(=O)N1CCC(CN2CCC(NC(=O)c3cc(Cl)c(N)cc3OC)CC2)CC1` [Example 5], the IC50 worked out at 7.6 nM.
For `COc1cc(N)c(Cl)cc1C(=O)NC1CCN(CC2CCN(CC(C)=O)CC2)CC1` [Example 85], the IC50 worked out at 18.2 nM.
In turn, `COc1cc(N)c(Cl)cc1C(=O)NC1CCN(CC2CCN(C(=O)N(C)c3ccccc3)CC2)CC1` [Example 8, 4-amino-5-chloro-2-methoxy-N-[1-[1-(N-methyl-N-phenylcarbamoyl)-4-piperidinylmethyl]-4-piperidinyl]benzamide] came in with an IC50 of 6.3 nM.
The same measure, in the same setting: with `CCN(CC)C(=S)N1CCC(CN2CCC(NC(=O)c3cc(Cl)c(N)cc3OC)CC2)CC1` [Example 11] the figure was 6.8 nM.
The same measure, in the same setting: the figure for `CCCCC(C(=O)OCC)N1CCC(CN2CCC(NC(=O)c3cc(Cl)c(N)cc3OC)CC2)CC1` (stereo not drawn) [Example 98] is 12.5 nM; for `COc1ccc(C(=O)N2CCC(CN3CCC(NC(=O)c4cc(Cl)c(N)cc4OC)CC3)CC2)cc1` [Example 60] it is 3.9 nM; for `CCOC(=O)CCCN1CCC(CN2CCC(NC(=O)c3cc(Cl)c(N)c4c3OCC4)CC2)CC1` [Example 100, 4-amino-5-chloro-N-[1-[1-(3-ethoxycarbonylpropyl)-4-piperidinylmethyl]-4-piperidinyl]-2,3-dihydrobenzo[b]furan-7-carboxamide] it is 1 nM.
`COc1cc(N)c(Cl)cc1C(=O)NC1CCN(CC2CCN(C(=O)c3ccccc3)CC2)CC1` [Example 72, 4-amino-N-[1-(1-benzoyl-4-piperidinylmethyl)-4-piperidinyl]-5-chloro-2-methoxybenzamide]: the IC50 was found to be 6.8 nM.
Still for that read-out and setting: the figure for `COc1cc(N)c(Cl)cc1C(=O)NC1CCN(CC2CCN(C(=O)Nc3ccc(C)cc3)CC2)CC1` [Example 40] is 1.7 nM; for `COc1cc(N)c(Cl)cc1C(=O)NC1CCN(CC2CCN(CC(=O)C(C)(C)C)CC2)CC1` [Example 87] it is 11.9 nM; for `COc1cc(N)c(Cl)cc1C(=O)NC1CCN(CC2CCN(C(=O)NCc3ccccc3)CC2)CC1` [Example 47] it is 1.6 nM.
The same measure, in the same setting: the figure for `CCCNC(=O)N1CCC(CN2CCC(NC(=O)c3cc(Cl)c(N)cc3OC)CC2)CC1` [Example 42] is 6.4 nM; for `COc1cc(N)c(Cl)cc1C(=O)NC1CCN(CC2CCN(C(=O)N3CCOCC3)CC2)CC1` [Example 13] it is 19.1 nM.
Same read-out and setting: the figure for `COc1cc(N)c(Cl)cc1C(=O)NC1CCN(CC2CCN(S(=O)(=O)N(C)C)CC2)CC1` [Example 16] is 14.2 nM; for `COc1cc(N)c(Cl)cc1C(=O)NC1CCN(CC2CCN(C(=O)c3cc(Cl)c(N)cc3OC)CC2)CC1` [Example 62] it is 1.4 nM.
`COc1ccc(NC(=O)N2CCC(CN3CCC(NC(=O)c4cc(Cl)c(N)cc4OC)CC3)CC2)cc1` [Example 39] returned an IC50 of 2.3 nM.
`COc1cc(N)c(Cl)cc1C(=O)NC1CCN(CC2CCN(C(=O)N(C(C)C)C(C)C)CC2)CC1` [Example 3] displayed an IC50 of 15.5 nM.
On the same count and under the same terms, with `COCC(=O)N1CCC(CN2CCC(NC(=O)c3cc(Cl)c(N)cc3OC)CC2)CC1` [Example 63] the figure was 20.7 nM.
Same read-out and setting: with `COc1cc(N)c(Cl)cc1C(=O)NC1CCN(CC2CCN(C(C)C(C)=O)CC2)CC1` (stereo not drawn) [Example 84, 4-amino-N-[1-[1-(2-butanon-3-yl)-4-piperidinylmethyl]-4-piperidinyl]-5-chloro-2-methoxybenzamide] the figure was 14.2 nM; with `COc1cc(N)c(Cl)cc1C(=O)NC1CCN(CC2CCN(CCCC(C)=O)CC2)CC1` [Example 88], 7.2 nM; with `COc1cc(N)c(Cl)cc1C(=O)NC1CCN(CC2CCN(C(=O)NC3CCCCCC3)CC2)CC1` [Example 51], 1.9 nM.
On the same count and under the same terms, with `COc1cc(N)c(Cl)cc1C(=O)NC1CCN(CC2CCN(C(=O)c3ccc(Cl)cc3)CC2)CC1` [Example 73] the figure was 4.2 nM; with `CCC(=O)CCN1CCC(CN2CCC(NC(=O)c3cc(Cl)c(N)cc3OC)CC2)CC1` [Example 89], 6.5 nM; with `CCC(=O)CN1CCC(CN2CCC(NC(=O)c3cc(Cl)c(N)c4c3OCC4)CC2)CC1` [Example 99, 4-amino-N-[1-[1-(2-butanon-1-yl)-4-piperidinylmethyl]-4-piperidinyl]-5-chloro-2,3-dihydrobenzo[b]furan-7-carboxamide], 3.9 nM.
The compound `CCOc1cc(N)c(Cl)cc1C(=O)NC1CCN(CC2CCN(C(=S)N(C)C)CC2)CC1` [Example 33, 4-Amino-5-chloro-N-[1-(1-dimethylthiocarbamoyl-4-piperidinylmethyl)-4-piperidinyl]-2-ethoxybenzamide] had an IC50 of 2.3 nM.
In turn, `COc1cc(N)c(Cl)cc1C(=O)NC1CCN(CC2CCN(C(N)=O)CC2)CC1` [Example 53, 4-amino-N-[1-(1-carbamoyl-4-piperidinylmethyl)-4-piperidinyl]-5-chloro-2-methoxybenzamide] registered an IC50 of 9.8 nM.

The next test concerns Mice of Std-ddY strain (evacuation). The test is described as follows: Assay on Evacuation in Mice (fecal pellets, oral). Also noted: key: -: Inactive; +: Moderately stimulated (P<0.05); ++: Markedly stimulated (p<0.01). As to conditions: 1 mg/kg oral; fecal pellets at 30, 60 and 120 minutes; Dunnett's test; fumarates except numbers marked ** (25, 86: free bases). It is filed as in vivo, mouse (Std-ddY, male). On the procedure:
Male mice of Std-ddY strain weighing 25-30 g were used. Free access to food and water was allowed up to the beginning of the procedure.
The mice (each group: five mice) were placed in a mesh bottom cage for fasting, and they were allowed for acclimation to new environment for about one hour prior to the start of the experiment. A test compound, which was previously suspended in the 0.5% tragacanth solution, was administered orally to the mice at a dose of 1 mg/kg. The fecal pellets were counted and collected at 30, 60 and 120 minutes after the treatment of a test compound, and weighed.
The statistical judgment of efficacy was carried out between the control group and the treated group, and determined by Dunnett's test.
Turning to `COc1cc(N)c(Br)cc1C(=O)NC1CCN(CC2CCN(C(=O)N3CCCC3)CC2)CC1` [Example 34, 4-amino-5-bromo-2-methoxy-N-[1-[1-(1-pyrrolidinecarbonyl)-4-piperidinylmethyl]-4-piperidinyl]benzamide], the “Effect (evacuation)” value was “++”.
On to `CCOc1cc(N)c(Cl)cc1C(=O)NC1CCN(CC2CCN(C(=O)N3CCCC3)CC2)CC1` [Example 32], for which the “Effect (evacuation)” value is reported as “+”.
Take `CCN(C)C(=O)N1CCC(CN2CCC(NC(=O)c3cc(Cl)c(N)cc3OC)CC2)CC1` [Example 4, 4-amino-5-chloro-N-[1-[1-(N-ethyl-N-methylcarbamoyl)-4-piperidinylmethyl]-4-piperidinyl]-2-methoxybenzamide]: the “Effect (evacuation)” value is “++”.
Same read-out and setting: with `COc1cc(N)c(Cl)cc1C(=O)NC1CCN(CC2CCN(C=O)CC2)CC1` [Example 79, 4-amino-5-chloro-N-[1-(1-formyl-4-piperidinylmethyl) -4-piperidinyl]-2-methoxybenzamide] the entry was “+”; with `COc1cc(N)c(Cl)cc1C(=O)NC1CCN(CC2CCN(C(=O)Nc3ccccc3)CC2)CC1` [Example 37, 4-amino-5-chloro-2-methoxy-N-[1-(1-phenylcarbamoyl-4-piperidinylmethyl)-4-piperidinyl]benzamide], “++”; with `COC(=O)N1CCC(CN2CCC(NC(=O)c3cc(Cl)c(N)cc3OC)CC2)CC1` [Example 76], “++”.
On the same count and under the same terms, the entry for `CCN(CC)C(=O)N1CCC(CN2CCC(NC(=O)c3cc(Cl)c(N)cc3OC)CC2)CC1` [Example 2] is “+”; for `COc1cc(N)c(Cl)cc1C(=O)NC1CCN(CC2CCN(C(C)=O)CC2)CC1` [Example 75] it is “++”; for `Nc1c(Cl)cc(C(=O)NC2CCN(CC3CCN(C(=O)Nc4ccccc4)CC3)CC2)c2c1CCO2` [Example 52, 4-amino-5-chloro-N-[1-(1-phenylcarbamoyl-4-piperidinylmethyl)-4-piperidinyl]-2,3-dihydrobenzo[b]furan-7-carboxamide] it is “++”.
The same measure, in the same setting: the entry for `COc1cc(N)c(Cl)cc1C(=O)NC1CCN(CC2CCN(C(=O)N(C)c3ccccc3)CC2)CC1` [Example 8, 4-amino-5-chloro-2-methoxy-N-[1-[1-(N-methyl-N-phenylcarbamoyl)-4-piperidinylmethyl]-4-piperidinyl]benzamide] is “++”.
Turning to `COCCC(=O)N1CCC(CN2CCC(NC(=O)c3cc(Cl)c(N)cc3OC)CC2)CC1` [Example 64], the “Effect (evacuation)” value is on record as “+”.
Still for that read-out and setting: the entry for `CCOC(=O)N1CCC(CN2CCC(NC(=O)c3cc(Cl)c(N)cc3OC)CC2)CC1` [Example 77] is “++”; for `CCOC(=O)CN1CCC(CN2CCC(NC(=O)c3cc(Cl)c(N)cc3OC)CC2)CC1` [Example 90] it is “+”.
